Measured values from patent publication US9465025B2, “Stable neural stem cell lines” (Neuralstem, Inc., priority 1996, dated 2016).

How the values were obtained:
[1] = target: T1, endogenous full-length progesterone receptor (Homo sapiens, UniProt P06401); conditions: Wang et al. 1994; cited from earlier work
T1 sequence (P06401 1-933): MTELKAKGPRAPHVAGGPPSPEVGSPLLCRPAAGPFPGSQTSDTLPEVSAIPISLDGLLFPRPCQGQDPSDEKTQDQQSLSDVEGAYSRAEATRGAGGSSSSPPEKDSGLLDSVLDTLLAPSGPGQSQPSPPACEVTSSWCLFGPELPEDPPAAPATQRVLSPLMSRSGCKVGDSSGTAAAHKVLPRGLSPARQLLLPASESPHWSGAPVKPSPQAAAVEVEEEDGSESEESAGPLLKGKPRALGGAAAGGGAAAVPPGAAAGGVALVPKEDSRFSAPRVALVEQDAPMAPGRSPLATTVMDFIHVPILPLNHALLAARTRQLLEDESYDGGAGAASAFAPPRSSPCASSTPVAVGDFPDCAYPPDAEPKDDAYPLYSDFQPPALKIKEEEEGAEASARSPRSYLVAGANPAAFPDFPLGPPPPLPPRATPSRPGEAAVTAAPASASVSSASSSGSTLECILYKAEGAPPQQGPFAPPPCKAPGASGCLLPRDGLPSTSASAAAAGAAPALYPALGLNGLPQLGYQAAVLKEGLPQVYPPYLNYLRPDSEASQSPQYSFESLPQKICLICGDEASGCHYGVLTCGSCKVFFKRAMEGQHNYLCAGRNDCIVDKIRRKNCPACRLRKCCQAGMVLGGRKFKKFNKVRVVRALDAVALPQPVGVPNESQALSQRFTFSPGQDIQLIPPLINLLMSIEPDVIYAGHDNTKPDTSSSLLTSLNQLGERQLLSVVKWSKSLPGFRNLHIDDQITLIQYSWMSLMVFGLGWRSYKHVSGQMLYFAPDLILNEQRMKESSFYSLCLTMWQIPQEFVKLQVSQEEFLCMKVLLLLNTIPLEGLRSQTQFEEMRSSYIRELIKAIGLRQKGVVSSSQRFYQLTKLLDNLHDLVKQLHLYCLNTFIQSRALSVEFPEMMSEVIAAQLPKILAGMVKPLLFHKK

[2] = test system: MycER-expressing CNS stem cells; experiment: Growth of MycER-expressing human CNS stem cells in different mitogens; type: cell-based
Procedure: The same human CNS stem cell preparation was also subjected to MycER-retrovirus infection and grown in bFGF alone or in bFGF and EGF. […] As with the unmodified parent cells, the MycER cells also retained a 60 hour doubling time in bFGF alone. […] In the absence of MycER expression, the same three conditions yielded a similar pattern of growth, but with less stability.

rat CNS stem cells = experiment: Doubling time of rat CNS stem cells in N2 medium with bFGF; type: cell-based; conditions: bFGF as sole mitogen
Procedure: (§1) The doubling time for human CNS stem cells in N2 medium with bFGF as the sole mitogen is approximately 60 hours which is markedly slower than 24 hours for rat CNS stem cells under the identical culture conditions. This may be due to a species difference in certain cell-autonomous properties of the cells such as a difference in DNA replication rate or in other mitotic phases, G1 or G2, of the cell cycle. We investigated other factors to accelerate the mitotic rate of human CNS stem cells.

human CNS stem cells = experiment: Mitotic rate (24-hour BrdU incorporation) and doubling time of human CNS stem cells with growth factors; type: cell-based; conditions: N2 medium, factor supplied daily
Procedure: as §1
Many purified recombinant human growth factors were tested for the ability to enhance the mitogenic activity of bFGF. The mitotic rate of human CNS stem cells was assessed by measuring the proportion of the cells which have incorporated the mitotic label, bromodeoxyuridine (BrdU), during a 24-hour period. Each growth factor was supplied daily to the culture in addition to bFGF. Only the combination of bFGF+EGF and bFGF+TGFα (transforming growth factor-alpha) accelerated beyond the bFGF-induced mitotic rate of the human CNS stem cells. In both conditions, the doubling time of the cells […] 1.5 times to 40 hours over bFGF alone. Combination of bFGF and fetal bovine serum at 1% or at 10% also accelerated the BrdU-incorporation rate of bFGF-induced mitotic rate of CNS stem cells to a similar rate. • 2. Resistance of CNS Stem Cells Against Spontaneous Differentiation

| Compound | activation of full-length receptor [1] | doubling time [2] [h] | doubling time (rat CNS stem cells) [h] | doubling time (human CNS stem cells) |
| --- | --- | --- | --- | --- |
| CC#C[C@]1(O)CC[C@H]2[C@@H]3CCC4=CC(=O)CCC4=C3[C@@H](c3ccc(N(C)C)cc3)C[C@@]21C [RU38486] | does not activate |  |  |  |
| bFGF: basic fibroblast growth factor, mitogen for CNS stem cells |  | 60 | 24 | approximately 60 hours |
